The values below come from US20150344457A1, “METHODS OF INHIBITING PRMT5” (EPIZYME, INC., priority 2012, published 2015).

A value given as a limit tells only on which side of the number the result lay.

T1 sequence (O14744 with tags, fused parts or gaps): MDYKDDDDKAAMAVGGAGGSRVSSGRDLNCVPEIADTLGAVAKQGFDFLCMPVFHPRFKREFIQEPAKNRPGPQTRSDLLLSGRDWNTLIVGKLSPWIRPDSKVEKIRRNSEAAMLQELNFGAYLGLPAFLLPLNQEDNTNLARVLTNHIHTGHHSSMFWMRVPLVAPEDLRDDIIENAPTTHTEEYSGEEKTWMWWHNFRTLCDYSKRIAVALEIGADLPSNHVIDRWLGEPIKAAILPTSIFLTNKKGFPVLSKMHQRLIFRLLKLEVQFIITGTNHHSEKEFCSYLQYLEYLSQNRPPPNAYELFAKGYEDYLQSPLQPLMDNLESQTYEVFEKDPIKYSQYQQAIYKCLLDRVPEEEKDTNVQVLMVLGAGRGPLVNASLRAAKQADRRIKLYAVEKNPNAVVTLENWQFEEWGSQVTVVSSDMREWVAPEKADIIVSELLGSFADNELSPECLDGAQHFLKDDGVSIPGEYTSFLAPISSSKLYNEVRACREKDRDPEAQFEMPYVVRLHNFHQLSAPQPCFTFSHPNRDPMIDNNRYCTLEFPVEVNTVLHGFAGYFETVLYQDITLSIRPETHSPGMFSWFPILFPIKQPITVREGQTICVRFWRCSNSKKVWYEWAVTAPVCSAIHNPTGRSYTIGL
T1 sequence (Q9BQA1 with tags, fused parts or gaps partner limits assumed): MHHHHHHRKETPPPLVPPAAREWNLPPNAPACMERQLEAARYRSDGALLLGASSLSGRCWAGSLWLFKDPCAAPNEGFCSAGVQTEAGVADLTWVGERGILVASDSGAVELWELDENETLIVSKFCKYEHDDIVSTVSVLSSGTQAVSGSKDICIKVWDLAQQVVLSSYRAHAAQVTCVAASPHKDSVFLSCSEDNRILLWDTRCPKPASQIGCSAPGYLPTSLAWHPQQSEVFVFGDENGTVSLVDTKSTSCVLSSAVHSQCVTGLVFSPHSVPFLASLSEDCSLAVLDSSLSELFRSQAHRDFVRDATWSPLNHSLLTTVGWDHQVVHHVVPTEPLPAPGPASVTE

The first experiment addresses T1, PRMT5/MEP50 (Homo sapiens, UniProt O14744).
T1 construct: Expressed full-length human Flag-PRMT5/6His-MeP50 protein complex was purified; made in house; host or cells: Spodoptera frugiperda (SF9) insect cells, baculovirus (pDEST8)
The experiment can be described thus: PRMT5 Biochemical Assay (PRMT5/MEP50 enzyme assay on peptide substrate, 3H-SAM Flashplate). Conditions: PRMT5 biochemical assay, Table C-2; read-out: Biochemical IC50. From the text: S-adenosylmethionine (SAM), S-adenosylhomocysteine (SAH), bicine, KCl, Tween20, dimethylsulfoxide (DMSO), bovine skin gelatin (BSG), and Tris(2-carboxyethyl)phosphine hydrochloride solution (TCEP) were purchased from Sigma-Aldrich at the highest level of purity possible. ^3H-SAM was purchase from American Radiolabeled Chemicals with a specific activity of 80 Ci/mmol 384-well streptavidin Flashplates were purchased from PerkinElmer.
Peptide representative of human histone H4 residues 1-15 was synthesized with a C-terminal linker-affinity tag motif and a C-terminal amide cap by 21st Century Biochemicals. […] The sequence was Ac-[…][K-Biot]-amide (SEQ ID NO.:3).
Full-length human MEP50 (NM_024102) clone was amplified from a human testis cDNA library incorporating a 5′ sequence encoding a 6-histidine tag (MHHHHHH) (SEQ ID NO.:5) fused directly to Arg 2 of MEP50. The amplified genes were sublconed into pENTR/D/TEV (Life Technologies) and subsequently transferred by Gateway™ attL×attR recombination to pDEST8 baculvirus expression vector (Life Technologies).
Recombinant baculovirus and Baculovirus-Infected Insect Cells (BIIC) were generated according to Bac-to-Bac kit instructions (Life Technologies) and Wasilko, 2006, respectively. Protein over-expression was accomplished by infecting exponentially growing Spodoptera frugiperda (SF9) cell culture at 1.2×10^6 cell/ml with a 5000 fold dilution of BIIC stock. Infections were carried out at 27° C. for 72 hours, harvested by centrifugation, and stored at −80° C. for purification.
Flag-PRMT5/6His-MeP50 was eluted with 300 mM Imidazole in the same buffer. […] Reference: Wasilko, D. J. and S. E. Lee: “TIPS: titerless infected-cells preservation and scale-up” Bioprocess J., 5 (2006), pp. 29-32.
General Procedure for PRMT5/MEP50 Enzyme Assays on Peptide Substrates.
The assays were all performed in a buffer consisting of 20 mM Bicine (pH=7.6), 1 mM TCEP, 0.005% BSG, and 0.002% Tween20, prepared on the day of use. Compounds in 100% DMSO (1 ul) were spotted into a polypropylene 384-well V-bottom plates (Greiner) using a Platemate Plus outfitted with a 384-channel head (Thermo Scientific). DMSO (1 ul) was added to Columns 11, 12, 23, 24, rows A-H for the maximum signal control and 1 ul of SAH, a known product and inhibitor of PRMT5/MEP50, was added to columns 11, 12, 23, 24, rows I-P for the minimum signal control. A cocktail (40 ul) containing the PRMT5/MEP50 enzyme and the peptide was added by Multidrop Combi (Thermo-Fisher). The compounds were allowed to incubate with PRMT5/MEP50 for 30 min at 25 degrees Celsius, then a cocktail (10 ul) containing ^3H-SAM was added to initiate the reaction (final volume=51 ul). The final concentrations of the components were as follows: PRMT5/MEP50 was 4 nM, ^3H-SAM was 75 nM, peptide was 40 nM, SAH in the minimum signal control wells was 100 uM, and the DMSO concentration was 1%. The assays were stopped by the addition of non-radioactive SAM (10 ul) to a final concentration of 600 uM, which dilutes the ^3H-SAM to a level where its incorporation into the peptide substrate is no longer detectable. 50 ul of the reaction in the 384-well polypropylene plate was then transferred to a 384-well Flashplate and the biotinylated peptides were allowed to bind to the streptavidin surface for at least 1 hour before being washed three times with 0.1% Tween20 in a Biotek ELx405 plate washer. The plates were then read in a PerkinElmer TopCount plate reader to measure the quantity of ^3H-labeled peptide bound to the Flashplate surface, measured as disintegrations per minute (dpm) or alternatively, referred to as counts per minute (cpm).
where dpm=disintegrations per minute, cmpd=signal in assay well, and min and max are the respective minimum and maximum signal controls.
where top and bottom are the normally allowed to float, but may be fixed at 100 or 0 respectively in a 3-parameter fit.
Broadly, the IC50 is the concentration needed to halve the response being measured. With `O=C1CN(Cc2ccccc2)CCN1CC(O)CN1CCc2ccccc2C1` (centres unmarked) [Compound C24], the IC50 was in the range of 1 to 10 µM.
Turning to `CN(C)c1ccccc1N1CCN(C[C@H](O)CN2CCc3ccccc3C2)C(=O)C1` [Compound C29], the IC50 was 0.101 to 1 µM.

Still in this experiment, the particulars now being: Table A-2; PRMT5/MEP50 4 nM, 3H-SAM 75 nM, peptide 40 nM; read-out: Biochemical IC50.
For `CC(Oc1ccccc1S(N)(=O)=O)C(=O)NCC(O)CN1CCc2ccccc2C1` (centres unmarked) [Compound A126], the IC50 was above 50 µM.
In the case of `Nc1ncccc1OCC(=O)NCC(O)CN1CCc2ccccc2C1` (centres unmarked) [Compound A145], the half-inhibitory concentration (IC50) was in the range of 1 to 10 µM.
For `CC(=O)Nc1cncc(OCC(=O)NCC(O)CN2CCc3ccccc3C2)c1` (centres unmarked) [Compound A148], the half-inhibitory concentration (IC50) is above 10 µM.
`CC(=O)Nc1ncccc1OCC(=O)NCC(O)CN1CCc2ccccc2C1` (centres unmarked) [Compound A147]: the IC50 was above 10 µM.
For `O=C(COc1cccc2cccnc12)NCC(O)CN1Cc2ccccc2C(F)(F)C1` (centres unmarked) [Compound A144], the IC50 was above 10 µM.
Regarding `CN(C)c1cccnc1OCC(=O)NCC(O)CN1CCc2ccccc2C1` (centres unmarked) [Compound A133], the IC50 was above 10 µM.
On to `O=C(COc1ccccc1OCCN1CCOCC1)NC[C@@H](O)CN1CCc2ccccc2C1` [Compound A87], for which the IC50 was in the range of 1 to 10 µM.
The same measure, in the same setting: the value for `O=C(COc1ccccc1)NC[C@@H](O)CN1CCc2ccccc2C1` [Compound A33] was 1 to 10 µM.
With `C[C@H](Oc1cccc2cccnc12)C(=O)NC[C@@H](O)CN1CCc2ccccc2C1` [Compound A72], the IC50 fell in the range of 1 to 10 µM.
For `CS(=O)(=O)Nc1cccnc1OCC(=O)NCC(O)CN1CCc2ccccc2C1` (centres unmarked) [Compound A140], the IC50 fell in the range of 1 to 10 µM.
On the same count and under the same terms, the value for `CC(=O)Nc1cccnc1OCC(=O)NCC(O)CN1CCc2ccccc2C1` (centres unmarked) [Compound A128] was above 50 µM; that for `CC(C)(Oc1ccccc1)C(=O)NCC(O)CN1CCc2ccccc2C1` (centres unmarked) [Compound A25] was 0.101 to 1 µM.

Staying with this experiment, now noted: Table B-2; PRMT5/MEP50 4 nM, 3H-SAM 75 nM, peptide 40 nM; read-out: Biochemical IC50.
As for `O=C(NCC(O)CN1CCc2ccccc2C1)c1cncc(NC2CCOCC2)c1` (centres unmarked) [Compound B54.], the half-maximal inhibitory concentration (IC50) was below 0.1 µM.
In the case of `O=C(NCC(O)CN1CCc2ccccc2C1)c1cccc(C2CCNC2)c1` (centres unmarked) [Compound B37.], the IC50 is below 0.1 µM.
For the compound `O=C(NCC(O)CN1CCc2ccccc2C1)c1cccc(NC2CCOC2)c1` (centres unmarked) [Compound B45.], the IC50 was below 0.1 µM.
Take `O=C(NCC(O)CN1CCc2ccccc2C1)c1cccc(NC2CCOCC2)c1` (centres unmarked) [Compound B16.]: the IC50 was below 0.1 µM.
`O=C(NC[C@H](O)CN1CCc2ccccc2C1)c1cccc(-c2ccccn2)c1` [Compound B20.]: the half-maximal inhibitory concentration (IC50) is below 0.1 µM.
On the same count and under the same terms, the value for `O=C(NCC(O)CN1CCc2ccccc2C1)c1cccc(N2CCNCC2)c1` (centres unmarked) [Compound B35.] was below 0.1 µM; that for `O=C(NC[C@H](O)CN1CCc2ccccc2C1)c1ccccc1` [Compound B3.] was below 0.1 µM; that for `O=C(NCC(O)CN1CCc2ccccc2C1)c1ccccn1` (centres unmarked) [Compound B17.] was 0.101 to 1 µM.
For `CNCCOc1cccc(C(=O)NCC(O)CN2CCc3ccccc3C2)c1` (centres unmarked) [Compound B39.], the half-inhibitory concentration (IC50) fell in the range of 0.101 to 1 µM.
Turning to `CN(c1cccc(C(=O)NCC(O)CN2CCc3ccccc3C2)c1)C1CCOCC1` (centres unmarked) [Compound B49.], the IC50 was 0.101 to 1 µM.
`Cn1nccc1-c1cccc(C(=O)NCC(O)CN2CCc3ccccc3C2)c1` (centres unmarked) [Compound B2.]: the IC50 was below 0.1 µM.
For `O=C(NCC(O)CN1CCc2ccccc2C1)c1cccc(-c2cccnc2)c1` (centres unmarked) [Compound B8.], the IC50 was below 0.1 µM.
For the compound `CN1CCN(Cc2cccc(C(=O)NCC(O)CN3CCc4ccccc4C3)c2)CC1` (centres unmarked) [Compound B30.], the IC50 was below 0.1 µM.
On to `CC(Nc1cccc(C(=O)NCC(O)CN2CCc3ccccc3C2)c1)C1CCOCC1` (centres unmarked) [Compound B52.], for which the IC50 lay in the range of 0.101 to 1 µM.

Still in this experiment, the particulars now being: Table D-2; read-out: Biochemical IC50.
`CC(C)(C)OC(=O)N1CCC(OCC(O)CN2CCc3ccccc3C2)C1` (centres unmarked) [Compound D287]: the IC50 was in the range of 1 to 10 µM.
As for `OC(COc1cccc2ccc(N3CCOCC3)nc12)CN1CCc2ccccc2C1` (centres unmarked) [Compound D15], the half-inhibitory concentration (IC50) is 1 to 10 µM.
The same measure, in the same setting: the value for `COc1cccc2c1CCN(CC(O)COc1cccc(-c3ccc4ncn(C)c4c3)c1)C2` (centres unmarked) [Compound D142] was 1 to 10 µM; that for `OC(COc1ccc(OCc2ccccc2)cc1)CN1CCc2ccccc2C1` (centres unmarked) [Compound D19] was 1 to 10 µM; that for `OC(COc1cccc(CNC2CCCCC2)c1)CN1CCc2ccccc2C1` (centres unmarked) [Compound D4] was 0.101 to 1 µM.
Same read-out and setting: the value for `OC(COc1cccc(-c2cc(Cl)cc(C(F)(F)F)c2)c1)CN1CCc2ccccc2C1` (centres unmarked) [Compound D128] was 1 to 10 µM; that for `CN(CC(O)CN1CCc2ccccc2C1)c1cccc(C(=O)NC2CCOCC2)c1` (centres unmarked) [Compound D99] was 10 to 40 µM.
With `OC(COc1ccc(-c2ccn[nH]2)cc1)CN1CCc2ccccc2C1` (centres unmarked) [Compound D48], the half-maximal inhibitory concentration (IC50) is 1 to 10 µM.
For `O=C(Nc1cccc(OCC(O)CN2CCc3ccccc3C2)c1)c1cnco1` (centres unmarked) [Compound D158], the half-inhibitory concentration (IC50) was 1 to 10 µM.
With `OC(COC1CCN(Cc2ccccc2)C1)CN1CCc2ccccc2C1` (centres unmarked) [Compound D35], the IC50 lay within 1 to 10 µM.
Regarding `COc1cccc2c1CCN(CC(O)COc1cccc(CNC3CCCC3)c1)C2` (centres unmarked) [Compound D54], the IC50 is above 40 µM.
Regarding `OC(COc1cccc(-c2ccncc2F)c1)CN1CCc2ccccc2C1` (centres unmarked) [Compound D190], the IC50 lay within 1 to 10 µM.
In the case of `CN(C(=O)c1cocn1)c1cccc(OCC(O)CN2CCc3ccccc3C2)c1` (centres unmarked) [Compound D198], the IC50 is 10 to 40 µM.
For the compound `Cn1cnc2ccc(-c3cccc(OCC(O)CN4Cc5ccccc5C(F)(F)C4)c3)cc21` (centres unmarked) [Compound D277], the IC50 is above 10 µM.
Take `OC(COc1cccc(C2=CCCCC2)c1)CN1CCc2ccccc2C1` (centres unmarked) [Compound D57]: the IC50 lay within 1 to 10 µM.
In the case of `Cn1cncc1C(=O)Nc1cccc(OCC(O)CN2CCc3ccccc3C2)c1` (centres unmarked) [Compound D195], the IC50 is 1 to 10 µM.
Regarding `OC(COCc1ccccn1)CN1CCc2ccccc2C1` (centres unmarked) [Compound D282], the IC50 was in the range of 10 to 40 µM.
For `COc1ccc2c(c1)CN(CC(O)COc1cccc(-c3ccc4ncn(C)c4c3)c1)CC2` (centres unmarked) [Compound D177], the IC50 was 10 to 40 µM.
Consider `Cn1cnc2ccc(-c3nccc(NCC(O)CN4CCc5ccccc5C4)n3)cc21` (centres unmarked) [Compound D120], for which the IC50 fell in the range of 1 to 10 µM.
For the compound `CCOC(=O)CC1c2ccccc2CCN1CC(O)COc1cccc(-c2ccc3ncn(C)c3c2)c1` (centres unmarked) [Compound D144], the 50% inhibitory concentration (IC50) lay within 1 to 10 µM.
Same read-out and setting: the value for `O=C(Nc1cccnc1)c1cccc(OCC(O)CN2CCc3ccccc3C2)c1` (centres unmarked) [Compound D268] was 1 to 10 µM; that for `CN1CC(n2cnc3ccc(-c4ccnc(NCC(O)CN5CCc6ccccc6C5)c4)cc32)C1` (centres unmarked) [Compound D230] was below 0.1 µM; that for `OC(COc1cccc(-c2ccccn2)c1)CN1CCc2ccccc2C1` (centres unmarked) [Compound D98] was 1 to 10 µM.
Still for that read-out and setting: next, `CC1CN(CC(O)COc2cccc(-c3ccc4ncn(C)c4c3)c2)Cc2ccccc21` (centres unmarked) [Compound D101]: 1 to 10 µM; `COc1ccccc1-c1cccc(OCC(O)CN2CCc3ccccc3C2)c1` (centres unmarked) [Compound D71]: 1 to 10 µM.
On to `OC(COC1CCCC1)CN1CCc2ccccc2C1` (centres unmarked) [Compound D302], for which the IC50 fell in the range of 1 to 10 µM.

The experiment is the same for the next values; noted with them: Table E-2; read-out: Biochemical IC50.
Turning to `Nc1cccc(C(=O)NCC(O)CN2Cc3ccccc3C2)c1` (centres unmarked) [Compound E2.], the half-maximal inhibitory concentration (IC50) lay within 1 to 10 µM.
As for `OC(COc1cccc(CNC2CCCC2)c1)CN1Cc2ccccc2C1` (centres unmarked) [Compound E20.], the concentration for half-maximal inhibition (IC50) was 1 to 10 µM.
